Data taken from PMC5423902, “CXCL9-Derived Peptides Differentially Inhibit Neutrophil Migration In Vivo through Interference with Glycosaminoglycan Interactions” (Frontiers in Immunology, 2017).

Legend:
[1] = test system: respiratory syncytial virus; details: cited from earlier work
Text: (§1) In several inflammatory diseases, an enhanced expression of chemokines leads to the pathological and continuous accumulation of activated leukocytes in tissues and consequently tissue damage. Thus, a reduction of chemokine activity at sites of excessive inflammation is needed. Although a lot of efforts were invested in the development of small molecule chemokine receptor antagonists, since the discovery of chemokine receptors as members of the GPCR family about two decades ago, success stories are limited to a few drugs that entered the market ([66]). Recently, inhibition of chemokine–GAG inte ...

[2] = test system: herpes simplex virus-1; details: cited from earlier work
Text: as §1

[3] = test system: dengue virus; details: cited from earlier work
Text: as §1

[4] = previously reported; read-out: KD for LMWH; cited from earlier work
Procedure: To obtain more insight in the contribution of the unique COOH-terminal region of CXCL9 and in the specificity of CXCL9-derived peptides for different GAGs, the affinity of CXCL9(74–93) for LMWH, HS, and CS was determined by IFT. […] A biphasic binding isotherm was obtained when titrating CXCL9(74-93) with HS, indicating more than one binding site for the peptide on this GAG. Fitting only the initial high-affinity phase, a KD ...

[5] = test system: CXCL8-induced neutrophil migration; experiment: CXCL8-induced neutrophil migration to the knee cavity; assay type: in vivo, mouse (C57BL/6); details: 66 µg peptide i.v., 1 µg CXCL8 intra-articular, C57BL/6, 3 h, n ≥ 5, Figure 5
Procedure: In vivo neutrophil extravasation to the peritoneal or the knee cavity was examined, respectively, by intraperitoneal or intra-articular injection, of endotoxin-free recombinant CXCL8(1-77) (PeproTech) or vehicle (PBS) in female NMRI or C57BL/6 mice, as described previously ([42], [48]). Simultaneously, synthetic CXCL9 peptide was co-injected either intraperitoneally or injected intravenously. After 2 h (peritoneal cavity) or 3 h (knee cavity), mice were sacrificed. The peritoneal cavity was washed with saline enriched with 2% FCS and 20 U/ml heparin and total leukocyte counts were determined. For the preparation of cytospins, 10^5 cells were used and absolute number and percentage of neutrophils in the lavages were determined in duplicate independently by two researchers by differential microscopic counting. […] The number of total leukocytes was determined by counting leukocytes in a Neubauer chamber after staining with Turk’s solution. […]
Figure 5 CXCL9(74-93) inhibits CXCL8-induced but not monosodium urate (MSU) crystal-induced neutrophil migration to the knee cavity. […] Simultaneously, 66 µg of CXCL9(74-93) was injected intravenously and 3 h post injection the number of total cells (A) and neutrophils (B) were evaluated by washing the cavity and differentially counting the leukocyte subtypes on May-Grunwald-Giemsa-stained cytospins. […]

[6] = test system: MSU crystal-induced neutrophil migration; experiment: MSU crystal-induced gout in mice (neutrophil migration to knee); assay type: in vivo, mouse (C57BL/6); details: 66 µg peptide i.v.; MSU crystals 100 µg, C57BL/6, 3 h, n ≥ 5; Figure 5
Procedure: Monosodium urate crystals were prepared as described previously ([42], [49]) and were injected (100 µg in 10 µl) in the tibiofemoral knee joint of C57Bl/6 mice. A group of mice received CXCL9 peptide or vehicle intravenously and the cells present in the tibiofemoral articulation were harvested 3 h after MSU crystal administration. The total and differential leukocyte counts were determined.
Figure 5 CXCL9(74-93) inhibits CXCL8-induced but not monosodium urate (MSU) crystal-induced neutrophil migration to the knee cavity. CXCL8(1-77) (1 µg) or MSU crystals (100 µg) were injected into the tibiofemoral articulation of C57BL/6 mice (n ≥ 5). Simultaneously, 66 µg of CXCL9(74-93) was injected intravenously and 3 h post injection the number of total cells (A) and neutrophils (B) were evaluated by washing the cavity and differentially counting the leukocyte subtypes on May-Grunwald-Giemsa-stained cytospins. The total numbers of leukocytes and neutrophils are shown for every individual mouse, and the horizontal lines denote the median number of cells. To detect statistically significant differences, the Mann–Whitney U-test was carried out (*p < 0.05; **p < 0.01; ***p < 0.005).

Row | Substance | inhibition of viral infection of cells [1] | inhibition of viral infection of cells [2] | inhibition of viral infection of cells [3] | Kd [4] [nM] | neutrophils in the joint upon CXCL8 ([5]; control 13.3 × 10^3) | percentage of neutrophils in the joint upon CXCL8 ([5]; control 60.5%) [%] | inhibition of MSU crystal-induced neutrophil migration to the joint [6]
1 | 74KKKQKNGKKHQKKKVLKVRKSQRSRQKKTT103 [CXCL9(74-103), COOH-terminal peptide of CXCL9] | able to inhibit viral infection of cells | able to inhibit viral infection of cells | able to inhibit viral infection of cells | 61 | – | – | –
2 | 74KKKQKNGKKHQKKKVLKVRK93 [CXCL9(74-93), COOH-terminal peptide of CXCL9 lacking the 10 COOH-terminal amino acids of CXCL9(74-103)] | – | – | – | – | 0.67 × 10^3 neutrophils | 17.5 | could not inhibit MSU crystal-induced neutrophil migration to the joint
